Reference: patent US7659263B2, “Thienopyrrole compound and use thereof as HCV polymerase inhibitor” (Japan Tobacco Inc., priority 2004, dated 2010)
Where a name gives a salt, the structure may show the parent alone.

Legend:
[1] = biological target: T1, NS5B 1a (Hepatitis C virus genotype 1a, UniProt P27958); experiment: Assay of enzyme (HCV polymerase) inhibitory activity, NS5B 1a; assay type: biochemical; conditions: HCV polymerase NS5B 1a; [3H]UTP incorporation, 25° C., 90 min
T1 construct: NS5B 1a
T1 sequence (P27958 2421-3011): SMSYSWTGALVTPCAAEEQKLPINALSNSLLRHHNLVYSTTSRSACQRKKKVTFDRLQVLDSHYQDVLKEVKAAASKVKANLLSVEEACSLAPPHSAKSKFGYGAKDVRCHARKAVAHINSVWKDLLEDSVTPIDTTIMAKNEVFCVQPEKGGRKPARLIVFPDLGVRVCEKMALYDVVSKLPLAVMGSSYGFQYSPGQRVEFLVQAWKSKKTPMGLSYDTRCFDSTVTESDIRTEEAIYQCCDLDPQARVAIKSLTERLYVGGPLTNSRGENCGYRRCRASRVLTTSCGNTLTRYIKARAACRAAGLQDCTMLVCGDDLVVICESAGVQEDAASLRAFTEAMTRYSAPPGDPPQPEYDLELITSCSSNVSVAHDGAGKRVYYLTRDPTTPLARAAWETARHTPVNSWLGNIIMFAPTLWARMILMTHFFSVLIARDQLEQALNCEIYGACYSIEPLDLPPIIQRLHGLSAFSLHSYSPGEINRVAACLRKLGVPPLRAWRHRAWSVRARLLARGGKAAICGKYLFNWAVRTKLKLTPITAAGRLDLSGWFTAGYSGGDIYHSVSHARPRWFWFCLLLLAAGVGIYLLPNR

[2] = biological target: T2, NS5B 1b (Hepatitis C virus genotype 1b, UniProt P26663); experiment: Assay of enzyme (HCV polymerase) inhibitory activity, NS5B 1b; assay type: biochemical
T2 construct: a region encoding NS5B (J Virol 1991 March, 65(3), 1105-13, 544 amino acids after deletion of 47 amino acids on the C-terminal); 6 His (C); made in house; host or cells: Escherichia coli
T2 sequence (P26663 2420-2963): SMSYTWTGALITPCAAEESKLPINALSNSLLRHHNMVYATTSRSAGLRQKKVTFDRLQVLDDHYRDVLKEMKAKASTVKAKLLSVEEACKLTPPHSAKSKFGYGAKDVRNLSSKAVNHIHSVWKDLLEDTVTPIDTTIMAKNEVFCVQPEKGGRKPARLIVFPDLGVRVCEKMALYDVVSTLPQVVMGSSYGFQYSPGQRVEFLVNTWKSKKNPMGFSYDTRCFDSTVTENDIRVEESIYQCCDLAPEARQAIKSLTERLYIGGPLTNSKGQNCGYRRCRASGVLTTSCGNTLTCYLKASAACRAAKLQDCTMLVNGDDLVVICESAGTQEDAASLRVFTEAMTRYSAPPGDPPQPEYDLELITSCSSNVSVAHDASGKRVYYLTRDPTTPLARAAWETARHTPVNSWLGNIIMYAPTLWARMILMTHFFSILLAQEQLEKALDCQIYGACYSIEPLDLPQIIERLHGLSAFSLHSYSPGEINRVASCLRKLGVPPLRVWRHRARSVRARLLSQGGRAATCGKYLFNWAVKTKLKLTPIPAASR
Description: The evaluation of the HCV polymerase inhibitory activity of the compound of the present invention is explained in the following. This polymerase is an enzyme coded for by the non-structural protein region called NS5B on the genome RNA of HCV (EMBO J., 15:12-22, 1996).
i) Preparation of enzyme (HCV polymerase)
Using, as a template, a cDNA clone corresponding to the full length genome RNA of HCV BK strain obtained from the blood of a patient with hepatitis C, a region encoding NS5B (J Virol 1991 March, 65(3), 1105-13, 544 amino acids after deletion of 47 amino acids on the C-terminal) was amplified by PCR. The objective gene was prepared by adding a 6 His tag {base pair encoding 6 continuous histidine (His)} to the 3′ end thereof and transformed to Escherichia coli. The Escherichia coli capable of producing the objective protein was cultured. The obtained cells were suspended in a buffer solution and crushed in a microfluidizer. The supernatant was obtained by centrifugation and applied to various column chromatographys {mono-S, Sephacryl S-200 (Pharmacia)}, inclusive of metal chelate chromatography, to give a standard enzyme product.
ii) Synthesis of Substrate RNA
Using a synthetic primer designed based on the sequence of HCV genomic 3′ untranslated region, a DNA fragment (148 bp) containing polyU and 3′X sequence was entirely synthesized and cloned into plasmid pBluescript SK II(+) (Stratagene). The cDNA encoding full length NS5B, which was prepared in i) above, was digested with restriction enzyme KpnI to give a cDNA fragment containing the nucleotide sequence of from the restriction enzyme cleavage site to the termination codon. This cDNA fragment was inserted into the upstream of 3′ untranslated region of the DNA in pBluescript SK II(+) and ligated. The about 450 bp inserted DNA sequence was used as a template in the preparation of substrate RNA. This plasmid was cleaved immediately after the 3′X sequence, linearized and purified by phenol-chloroform treatment and ethanol precipitation to give DNA.
RNA was synthesized (37° C., 3 hr) by run-off method using this purified DNA as a template, a promoter of pBluescript SK II(+), MEGAscript RNA synthesis kit (Ambion) and T7 RNA polymerase. DNase I was added and the mixture was incubated for 1 hr. The template DNA was removed by decomposition to give a crude RNA product. This crude product was treated with phenol-chloroform and purified by ethanol precipitation to give the objective substrate RNA.
This RNA was applied to formaldehyde denaturation agarose gel electrophoresis to confirm the quality thereof and preserved at −80° C. iii) Assay of enzyme (HCV polymerase) inhibitory activity A test substance (compound of the present invention) and a reaction mixture (30 μl) having the following composition were reacted at 25° C. for 90 min.
10% Trichloroacetic acid at 4° C. and 1% sodium pyrophosphate solution (150 μl) were added to this reaction mixture to stop the reaction. The reaction mixture was left standing in ice for 15 min to insolubilize RNA. This RNA was trapped on a glass filter (Whatman GF/C and the like) upon filtration by suction. This filter was washed with a solution containing 1% trichloroacetic acid and 0.1% sodium pyrophosphate, washed with 90% ethanol and dried. A liquid scintillation cocktail (Packard) was added and the radioactivity of RNA synthesized by the enzyme reaction was measured on a liquid scintillation counter.
The HCV polymerase inhibitory activity (IC50) of the compound of the present invention was calculated from the values of radioactivity of the enzyme reaction with and without the 20 test substance. […]

| SMILES | IC50 [1] [nM] | IC50 [2] [nM] |
| --- | --- | --- |
| CS(=O)(=O)N1CCN(c2ccc(N3CCCC3=O)cc2COc2ccc3c(c2)OCCn2c-3c(C3CCCCC3)c3sc(C(=O)O)cc32)CC1 [Example 18, 11-cyclohexyl-8-[2-(4-methanesulfonylpiperazin-1-yl)-5-(2-oxopyrrolidin-1-yl)benzyloxy]-4,5-dihydro-6-oxa-1-thia-3b-azabenzo[e]cyclopenta[a]azulene-2-carboxylic acid] | < 10 | < 10 |
| CCN1CCN(C(=O)CN2CCn3c(c(C4CCCCC4)c4sc(C(=O)O)cc43)-c3ccc(C)cc32)CC1 [Example 35, 11-cyclohexyl-6-[2-(4-ethylpiperazin-1-yl)-2-oxoethyl]-8-methyl-5,6-dihydro-4H-1-thia-3b,6-diazabenzo[e]cyclopenta[a]azulene-2-carboxylic acid dihydrochloride] | 10 to 100 | 10 to 100 |
| CCOc1ccc2c(c1)OCCn1c-2c(C2CCCCC2)c2sc(C(=O)O)cc21 [Example 41, 11-cyclohexyl-8-ethoxy-4,5-dihydro-6-oxa-1-thia-3b-azabenzo[e]cyclopenta[a]azulene-2-carboxylic acid] | 10 to 100 | 10 to 100 |
| O=C(O)c1cc2c(s1)c(C1CCCCC1)c1n2CCN(CCN2CCCOCC2)c2ccccc2-1 [Example 24, 11-cyclohexyl-6-[2-(1,4-oxazepan-4-yl)ethyl]-5,6-dihydro-4H-1-thia-3b,6-diazabenzo[e]cyclopenta[a]azulene-2-carboxylic acid dihydrochloride] | 10 to 100 | 10 to 100 |
| Cc1ccc2c(c1)N(CCN1CCCCC1)CCn1c-2c(C2CCCCC2)c2sc(C(=O)O)cc21 [Example 19, 11-cyclohexyl-8-methyl-6-[2-(piperidin-1-yl)ethyl]-5,6-dihydro-4H-1-thia-3b,6-diazabenzo[e]cyclopenta[a]azulene-2-carboxylic acid dihydrochloride] | 10 to 100 | < 10 |
| CCOc1ccc2c(c1)OCCn1c-2c(C2CCCCC2)c2sc(C(=O)NC3(C(=O)Nc4ccc(/C=C/C(=O)O)cc4)CCC3)cc21 [Example 43, (E)-3-[4-({1-[(11-cyclohexyl-8-ethoxy-4,5-dihydro-6-oxa-1-thia-3b-azabenzo[e]cyclopenta[a]azulene-2-carbonyl)amino]cyclobutanecarbonyl}amino)phenyl]acrylic acid] | 10 to 100 | 10 to 100 |
| O=C(O)c1cc2c(s1)c(C1CCCCC1)c1n2CCN(CCN2CCCCC2)c2cc(Cl)ccc2-1 [Example 20, 8-chloro-11-cyclohexyl-6-[2-(piperidin-1-yl)ethyl]-5,6-dihydro-4H-1-thia-3b,6-diazabenzo[e]cyclopenta[a]azulene-2-carboxylic acid dihydrochloride] | 10 to 100 | 10 to 100 |
| CN1CCn2c(c(C3CCCCC3)c3sc(C(=O)NC4(C(=O)Nc5ccc(/C=C/C(=O)O)cc5)CCC4)cc32)-c2ccc(Cl)cc21 [Example 39, (E)-3-[4-({1-[(8-chloro-11-cyclohexyl-6-methyl-5,6-dihydro-4H-1-thia-3b,6-diazabenzo[e]cyclopenta[a]azulene-2-carbonyl)amino]cyclobutanecarbonyl}amino)phenyl]acrylic acid] | 10 to 100 | 10 to 100 |
| CCOc1ccc2c(c1)N(C)CCn1c-2c(C2CCCCC2)c2sc(C(=O)O)cc21 [Example 44, 11-cyclohexyl-8-ethoxy-6-methyl-5,6-dihydro-4H-1-thia-3b,6-diazabenzo[e]cyclopenta[a]azulene-2-carboxylic acid] | 10 to 100 | 10 to 100 |
| COCC[C@@H]1CCCN(CCN2CCn3c(c(C4CCCCC4)c4sc(C(=O)O)cc43)-c3ccc(C)cc32)C1 [Example 27, (S)-11-cyclohexyl-6-{2-[3-(2-methoxyethyl)piperidin-1-yl]ethyl}-8-methyl-5,6-dihydro-4H-1-thia-3b,6-diazabenzo[e]cyclopenta[a]azulene-2-carboxylic acid dihydrochloride] | 10 to 100 | 10 to 100 |
| Cc1ccc2c(c1)N(CCN1CCCCCCC1)CCn1c-2c(C2CCCCC2)c2sc(C(=O)O)cc21 [Example 25, 6-[2-(azocan-1-yl)ethyl]-11-cyclohexyl-8-methyl-5,6-dihydro-4H-1-thia-3b,6-diazabenzo[e]cyclopenta[a]azulene-2-carboxylic acid dihydrochloride] | 10 to 100 | < 10 |
| CCN1CCN(C(=O)CN2CCn3c(c(C4CCCCC4)c4sc(C(=O)O)cc43)-c3ccccc32)CC1 [Example 14, 11-cyclohexyl-6-[2-(4-ethylpiperazin-1-yl)-2-oxoethyl]-5,6-dihydro-4H-1-thia-3b,6-diazabenzo[e]cyclopenta[a]azulene-2-carboxylic acid dihydrochloride] | 10 to 100 | 10 to 100 |
| COCC[C@@H]1CCCN(CCN2CCn3c(c(C4CCCCC4)c4sc(C(=O)O)cc43)-c3ccccc32)C1 [Example 23, (S)-11-cyclohexyl-6-{2-[3-(2-methoxyethyl)piperidin-1-yl]ethyl)-5,6-dihydro-4H-1-thia-3b,6-diazabenzo[e]cyclopenta[a]azulene-2-carboxylic acid dihydrochloride] | 10 to 100 | 10 to 100 |
| CS(=O)(=O)c1ccc(N2CCOCC2)c(COc2ccc3c(c2)OCCn2c-3c(C3CCCCC3)c3sc(C(=O)O)cc32)c1 [Example 3, 11-cyclohexyl-8-[5-methanesulfonyl-2-(morpholin-4-yl)benzyloxy]-4,5-dihydro-6-oxa-1-thia-3b-azabenzo[e]cyclopenta[a]azulene-2-carboxylic acid] | 10 to 100 | < 10 |
| COc1ccc2c(c1)OCCn1c-2c(C2CCCCC2)c2sc(C(=O)NC3(C(=O)Nc4cccc(/C=C/C(=O)O)c4)CCC3)cc21 [Example 40, (E)-3-[3-({1-[(11-cyclohexyl-8-methoxy-4,5-dihydro-6-oxa-1-thia-3b-azabenzo[e]cyclopenta[a]azulene-2-carbonyl)amino]cyclobutanecarbonyl}amino)phenyl]acrylic acid] | 10 to 100 | 10 to 100 |
| O=C(O)c1cc2c(s1)c(C1CCCCC1)c1n2CCOc2cc(OCc3cc(N4CCCC4=O)ccc3N3CCOCC3)ccc2-1 [Example 16, 11-cyclohexyl-8-[2-(morpholin-4-yl)-5-(2-oxopyrrolidin-1-yl)benzyloxy]-4,5-dihydro-6-oxa-1-thia-3b-azabenzo[e]cyclopenta[a]azulene-2-carboxylic acid hydrochloride] | 10 to 100 | < 10 |
| CCOc1ccc2c(c1)N(C)CCn1c-2c(C2CCCCC2)c2sc(C(=O)NC3(C(=O)Nc4ccc(/C=C/C(=O)O)cc4)CCC3)cc21 [Example 45, (E)-3-[4-({1-[(11-cyclohexyl-8-ethoxy-6-methyl-5,6-dihydro-4H-1-thia-3b,6-diazabenzo[e]cyclopenta[a]azulene-2-carbonyl)amino]cyclobutanecarbonyl}amino)phenyl]acrylic acid] | 10 to 100 | 10 to 100 |
| COC(=O)N1CCCC(Oc2ccc3c(c2)OCCn2c-3c(C3CCCCC3)c3sc(C(=O)O)cc32)C1 (centres unmarked) [Example 17, 11-cyclohexyl-8-(1-methoxycarbonylpiperidin-3-yloxy)-4,5-dihydro-6-oxa-1-thia-3b-azabenzo[e]cyclopenta[a]azulene-2-carboxylic acid] | 10 to 100 | 10 to 100 |
| Cc1ccc2c(c1)N(CCN1CCN(C(=O)OC(C)(C)C)CC1)CCn1c-2c(C2CCCCC2)c2sc(C(=O)O)cc21 [Example 33, 6-[2-(4-tert-butoxycarbonylpiperazin-1-yl)ethyl]-11-cyclohexyl-8-methyl-5,6-dihydro-4H-1-thia-3b,6-diazabenzo[e]cyclopenta[a]azulene-2-carboxylic acid hydrochloride] | 10 to 100 | 10 to 100 |
